Measured values: patent publication US7994204B2, “Binding inhibitor of sphingosine-1-phosphate” (Taisho Pharmaceutical Co., Ltd, priority 2006, dated 2011)

Target: T1, human Edg-1 (S1P1) (Homo sapiens, UniProt P21453)
T1 construct: expressed in transfected cells; host or cells: HEK-293
Assay: S1P1 binding inhibition test (membrane, [33P]-S1P)
Details: compound 10 μM; [33P]-S1P 0.1 nM; human Edg-1 (S1P1) HEK-293 membrane fraction; read-out: Binding test (membrane) % inhibition (10 μM)
Method: The membrane fraction was obtained by treating the cells with a solubilizing buffer (1 mM Tris/HCl, pH 7.2) for 10 minutes on ice, centrifuging at 1000×g for 5 minutes to remove insoluble fractions, and then centrifuging at 40000×g for 30 minutes at 4° C. The resulting membrane fraction was dissolved in a binding buffer (20 mM Tris-HCl, pH 7.4, 100 mM NaCl, 15 mM NaF, 2 mM deoxypyridoxine, 4 mg/mL fatty acid-free BSA), and then [^33P]-S1P (manufactured by ARC, final concentration 0.1 nM) and a DMSO solution (final concentration of the compound 10^−5 M, final concentration of DMSO 0.1%) of the test compound were added. Thereafter, the mixture was stirred and then treated for one hour at 30° C. Using a harvester, the membrane fraction was harvested onto unifilter-96 GF/C filter (manufactured by Perkin Elmer), washing was carried out four times with the binding buffer, and the filter was dried. Twenty five μL Microscint 0 (manufactured by Perkin Elmer) was added, and radioactivity was measured using Top Count NXT (manufactured by Packard) to calculate the amount (A) of [^33P]-S1P bound to the membrane fraction at the time when the compound was added.
The same procedure was carried out in the absence of the test compound, and the amount (B) of [^33P]-S1P bound was calculated. Further, the same procedure was carried out in the absence of the test compound by use of HEK-293 cells to which no Edg-1 (S1P1) gene was introduced, and the background amount (C) of [^33P]-S1P bound was calculated.
Inhibition rate (%)=[1−(A−C)/(B−C)]×100.
Moreover, the concentration required for a test compound to produce 50% inhibition of the binding caused in the absence of the test compound was also calculated (IC50). The above membrane system binding test was performed in the presence of a test compound at various concentrations to calculate the inhibition rate of Edg-1(S1P1) binding at each concentration according to the above equation, followed by calculating an IC50 value for each compound with data analysis software, Origin (Lightstone Corp., Japan).

T1 sequence (P21453 whole entry): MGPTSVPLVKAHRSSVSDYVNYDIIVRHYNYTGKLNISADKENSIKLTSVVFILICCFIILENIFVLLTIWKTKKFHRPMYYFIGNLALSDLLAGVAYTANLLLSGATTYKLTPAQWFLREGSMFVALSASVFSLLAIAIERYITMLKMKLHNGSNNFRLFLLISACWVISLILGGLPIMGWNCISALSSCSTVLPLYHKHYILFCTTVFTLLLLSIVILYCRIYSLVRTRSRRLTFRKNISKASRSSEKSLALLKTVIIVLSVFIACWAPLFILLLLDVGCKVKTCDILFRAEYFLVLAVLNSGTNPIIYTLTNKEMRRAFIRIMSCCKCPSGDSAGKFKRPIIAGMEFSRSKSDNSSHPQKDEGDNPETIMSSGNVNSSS

| Structure (SMILES) | inhibition at 10 µM |
| --- | --- |
| CCn1c(C(C)NS(=O)(=O)c2ccc(F)c(F)c2F)cnc1Oc1ccc(C)cc1 (stereo not shown) [Compound 90] | 78.6% |
| CCn1c(C(C)NS(=O)(=O)c2cc(F)c(F)cc2Cl)cnc1Oc1ccc(C)cc1 (stereo not shown) [Compound 93] | 75.2% |
| CCn1c(C(C)NS(=O)(=O)c2ccc(F)c(F)c2)cnc1Oc1ccc(C)cc1 (stereo not shown) [Compound 94] | 86.5% |
| CCn1c(C(C)NS(=O)(=O)c2ccc(Br)cc2F)cnc1Oc1ccc(C)cc1 (stereo not shown) [Compound 95] | 80.1% |
| CCn1c(C(C)NS(=O)(=O)c2cc(F)c(Cl)cc2F)cnc1Oc1ccc(C)cc1 (stereo not shown) [Compound 96] | 80.4% |
| CCn1c(C(C)NS(=O)(=O)c2cc(C)c(Cl)cc2Cl)cnc1Oc1ccc(C)cc1 (stereo not shown) [Compound 101] | 107% |
| CCn1c(C(C)NS(=O)(=O)c2c(F)c(Br)cc(F)c2Br)cnc1Oc1ccc(C)cc1 (stereo not shown) [Compound 102] | 78.2% |
| CCn1c(C(C)NS(=O)(=O)c2c(F)cccc2F)cnc1Oc1ccc(C)cc1 (stereo not shown) [Compound 103] | 53% |
| CCn1c(C(C)NS(=O)(=O)c2cc(C(F)(F)F)ccc2Cl)cnc1Oc1ccc(C)cc1 (stereo not shown) [Compound 104] | 70.9% |
| CCn1c(C(C)NS(=O)(=O)c2cccc(F)c2)cnc1Oc1ccc(C)cc1 (stereo not shown) [Compound 105] | 84.2% |
| CCn1c(C(C)NS(=O)(=O)c2cc(Cl)ccc2OC)cnc1Oc1ccc(C)cc1 (stereo not shown) [Compound 107] | 79.8% |
| CCn1c(C(C)NS(=O)(=O)c2c(C)cc(Cl)cc2Cl)cnc1Oc1ccc(C)cc1 (stereo not shown) [Compound 108] | 81.3% |
| CCn1c(C(C)NS(=O)(=O)c2cc(F)c(F)cc2F)cnc1Oc1ccc(C)cc1 (stereo not shown) [Compound 109] | 81.3% |
| CCn1c(C(C)NS(=O)(=O)c2cc(Br)ccc2Br)cnc1Oc1ccc(C)cc1 (stereo not shown) [Compound 110] | 86.4% |
| CCn1c(C(C)NS(=O)(=O)c2ccc(-c3ccno3)s2)cnc1Oc1ccc(C)cc1 (stereo not shown) [Compound 111] | 59.6% |
| CCn1c(C(C)NS(=O)(=O)c2ccc(Br)cc2Br)cnc1Oc1ccc(C)cc1 (stereo not shown) [Compound 113] | 77.8% |
| CCn1c(C(C)NS(=O)(=O)c2ccc(F)c(C#N)c2)cnc1Oc1ccc(C)cc1 (stereo not shown) [Compound 114] | 96.8% |
| CCn1c(C(C)NS(=O)(=O)c2cc(C)cc(C)c2)cnc1Oc1ccc(C)cc1 (stereo not shown) [Compound 115] | 92.9% |

| Structure (SMILES) | inhibition at 10 µM |
| --- | --- |
| CCn1c(C(C)NS(=O)(=O)c2ccc(OC(F)F)cc2)cnc1Oc1ccc(C)cc1 (stereo not shown) [Compound 116] | 78.2% |
| CCn1c(C(C)NS(=O)(=O)c2cccc(OC(F)F)c2)cnc1Oc1ccc(C)cc1 (stereo not shown) [Compound 117] | 87.3% |
| CCn1c(C(C)NS(=O)(=O)c2c(F)cc(F)cc2Br)cnc1Oc1ccc(C)cc1 (stereo not shown) [Compound 118] | 62.5% |
| CCn1c(C(C)NS(=O)(=O)c2cc(F)cc(F)c2)cnc1Oc1ccc(C)cc1 (stereo not shown) [Compound 119] | 91.1% |
| CCn1c(C(C)NS(=O)(=O)c2ccc(Cl)cc2F)cnc1Oc1ccc(C)cc1 (stereo not shown) [Compound 120] | 81.2% |
| CCn1c(C(C)NS(=O)(=O)c2cc(F)c(F)c(F)c2)cnc1Oc1ccc(C)cc1 (stereo not shown) [Compound 121] | 101% |
| CCn1c(C(C)NS(=O)(=O)c2ccc(Br)c(C)c2)cnc1Oc1ccc(C)cc1 (stereo not shown) [Compound 122] | 100% |
| CCn1c(C(C)NS(=O)(=O)c2ccc(F)cc2Br)cnc1Oc1ccc(C)cc1 (stereo not shown) [Compound 123] | 70.6% |
| CCn1c(C(C)NS(=O)(=O)c2ccc(C(F)(F)F)cc2Br)cnc1Oc1ccc(C)cc1 (stereo not shown) [Compound 124] | 65.6% |
| CCn1c(C(C)NS(=O)(=O)c2ccc(C)c(F)c2)cnc1Oc1ccc(C)cc1 (stereo not shown) [Compound 126] | 99.3% |
| CCn1c(C(C)NS(=O)(=O)c2ccc(F)cc2C)cnc1Oc1ccc(C)cc1 (stereo not shown) [Compound 127] | 86.4% |
| CCn1c(C(C)NS(=O)(=O)c2cc(Cl)ccc2F)cnc1Oc1ccc(C)cc1 (stereo not shown) [Compound 128] | 65.6% |
| CCn1c(C(C)NS(=O)(=O)c2ccc(Br)c(F)c2)cnc1Oc1ccc(C)cc1 (stereo not shown) [Compound 129] | 102% |
| CCn1c(C(C)NS(=O)(=O)c2ccc(Br)cc2Cl)cnc1Oc1ccc(C)cc1 (stereo not shown) [Compound 130] | 77.5% |
| CCn1c(C(C)NS(=O)(=O)c2ccc(C)c(C)c2)cnc1Oc1ccc(C)cc1 (stereo not shown) [Compound 133] | 104% |
| CCn1c(C(C)NS(=O)(=O)c2cc(C)ccc2F)cnc1Oc1ccc(C)cc1 (stereo not shown) [Compound 134] | 81% |
| CCn1c(C(C)NS(=O)(=O)c2cccc(Cl)c2F)cnc1Oc1ccc(C)cc1 (stereo not shown) [Compound 135] | 83.4% |
| CCn1c(C(C)NS(=O)(=O)c2cc(C)oc2C(F)(F)F)cnc1Oc1ccc(C)cc1 (stereo not shown) [Compound 143] | 58.8% |

The next lines start with the values.

| inhibition at 10 µM | Structure (SMILES) |
| --- | --- |
| 94.1% | CCn1c(C(C)NS(=O)(=O)c2ccc3c(c2)OCCO3)cnc1Oc1ccc(C)cc1 (stereo not shown) [Compound 144] |
| 57.8% | CCn1c(C(C)NS(=O)(=O)c2cccc3nsnc23)cnc1Oc1ccc(C)cc1 (stereo not shown) [Compound 146] |
| 73.2% | CCn1c(C(C)NS(=O)(=O)c2ccc3nsnc3c2)cnc1Oc1ccc(C)cc1 (stereo not shown) [Compound 147] |
| 57% | CCn1c(C(C)NS(=O)(=O)c2ccc(C(F)(F)F)cc2Cl)cnc1Oc1ccc(C)cc1 (stereo not shown) [Compound 158] |
| 71.2% | CCn1c(C(C)NS(=O)(=O)c2cccc(C(C)=O)c2)cnc1Oc1ccc(C)cc1 (stereo not shown) [Compound 161] |
| 70.2% | CCn1c(C(C)NS(=O)(=O)c2ccc(F)c3ccccc23)cnc1Oc1ccc(C)cc1 (stereo not shown) [Compound 162] |
| 80.7% | CCc1ccc(OC)c(S(=O)(=O)NC(C)c2cnc(Oc3ccc(C)cc3)n2CC)c1 (stereo not shown) [Compound 166] |
| 62% | CCn1c(C(C)NS(=O)(=O)c2cccc3cnccc23)cnc1Oc1ccc(C)cc1 (stereo not shown) [Compound 169] |
| 75.9% | CCn1c(C(C)NS(=O)(=O)c2ccc(Br)c(C(F)(F)F)c2)cnc1Oc1ccc(C)cc1 (stereo not shown) [Compound 172] |
| 77.7% | CCn1c(C(C)NS(=O)(=O)c2cc3ccccc3s2)cnc1Oc1ccc(C)cc1 (stereo not shown) [Compound 177] |
| 64.2% | CCn1c(C(C)NS(=O)(=O)c2csc3ccccc23)cnc1Oc1ccc(C)cc1 (stereo not shown) [Compound 178] |
| 95.9% | CCn1c(Oc2ccc(C)cc2)cnc1C(C)NS(=O)(=O)c1ccc(Cl)c(Cl)c1 (stereo not shown) [Compound 179, 3,4-Dichloro-N-[1-(1-ethyl-5-(4-methylphenoxy)-1H-imidazol-2-yl)-ethyl]-benzenesulfonamide] |
| 95.3% | CCn1c(C(C)NS(=O)(=O)c2ccc(Cl)c(Cl)c2)cnc1Oc1cccc(N2CCN(C)CC2)c1 (stereo not shown) [Compound 184, 3,4-Dichloro-N-(1-{3-ethyl-2-[3-(4-methylpiperazin-1-yl)-phenoxy]-3H-imidazol-4-yl}-ethyl)-benzenesulfonamide] |
| 97.2% | CCn1c(C(C)NS(=O)(=O)c2ccc(Cl)c(Cl)c2)cnc1Oc1ccc(Cl)cc1 (stereo not shown) [Compound 189, 3,4-Dichloro-N-{1-[3-ethyl-2-(4-chlorophenoxy)-3H-imidazol-4-yl]-ethyl}-benzenesulfonamide] |
| 100% | CCC(NS(=O)(=O)c1ccc(Cl)c(Cl)c1)c1cnc(Oc2ccc(F)cc2)n1CC (stereo not shown) [Compound 191, 3,4-Dichloro-N-{1-[3-ethyl-2-(4-fluorophenoxy)-3H-imidazol-4-yl]-propyl}-benzenesulfonamide] |
| 98.1% | CCn1c(C(C)NS(=O)(=O)c2ccc(Cl)c(Cl)c2)cnc1Oc1cccc(NS(C)(=O)=O)c1 (stereo not shown) [Compound 234, 3,4-Dichloro-N-{1-[3-ethyl-2-(3-methanesulfonylaminophenoxy)-3H-imidazol-4-yl]-ethyl}-benzenesulfonamide] |
| 82.6% | CCn1c(C(C)NS(=O)(=O)c2ccc(Cl)c(Cl)c2)cnc1Sc1ccc(C)cc1 (stereo not shown) [Compound 241, 3,4-Dichloro-N-[1-(3-ethyl-2-p-tolylsulfanyl-3H-imidazol-4-yl)-ethyl]-benzenesulfonamide] |
| 90.2% | CCn1c(C(C)N(C)S(=O)(=O)c2ccc(Cl)c(Cl)c2)cnc1Oc1ccc(Cl)cc1 (stereo not shown) [Compound 248, 3,4-Dichloro-N-{1-[2-(4-chlorophenoxy)-3-ethyl-3H-imidazol-4-yl]-ethyl}-N-methyl-benzenesulfonamide] |
| 100% | CCn1c(C(C)NS(=O)(=O)c2ccc(Cl)c(Cl)c2)cnc1Oc1cccc(-n2cccc2)c1 (stereo not shown) [Compound 249, 3,4-Dichloro-N-{1-[3-ethyl-2-(3-pyrrol-1-yl-phenoxy)-3H-imidazol-4-yl]-ethyl}-benzenesulfonamide] |

Same assay, conditions: membrane system binding test, various concentrations

| Structure (SMILES) | IC50 |
| --- | --- |
| CCn1c(C(C)NS(=O)(=O)c2ccc(Cl)c(Cl)c2)cnc1Oc1cccc(N2CCN(C)CC2)c1 (stereo not shown) [Compound 184, 3,4-Dichloro-N-(1-{3-ethyl-2-[3-(4-methylpiperazin-1-yl)-phenoxy]-3H-imidazol-4-yl}-ethyl)-benzenesulfonamide] | 14.3 nM |
| CCn1c(C(C)NS(=O)(=O)c2ccc(Cl)c(Cl)c2)cnc1Oc1ccc(Cl)cc1 (stereo not shown) [Compound 189, 3,4-Dichloro-N-{1-[3-ethyl-2-(4-chlorophenoxy)-3H-imidazol-4-yl]-ethyl}-benzenesulfonamide] | ≤ 70 nM |
| CCn1c(C(C)NS(=O)(=O)c2ccc(Cl)c(Cl)c2)cnc1Oc1cccc(NS(C)(=O)=O)c1 (stereo not shown) [Compound 234, 3,4-Dichloro-N-{1-[3-ethyl-2-(3-methanesulfonylaminophenoxy)-3H-imidazol-4-yl]-ethyl}-benzenesulfonamide] | ≤ 35 nM |
